Values after ≈ are worked out from the molar mass of the structure shown.
Columns and labels:
[1] = tested on: Staphylococcus aureus; test: Antimicrobial activity against Staphylococcus aureus after 24 hrs by twofold serial dilution method; format: functional; details: read-out: -Log MIC
[2] = tested on: Bacillus subtilis; test: Antimicrobial activity against Bacillus subtilis after 24 hrs by twofold serial dilution method; format: functional; details: read-out: -Log MIC
[3] = tested on: Aspergillus niger; test: Antifungal activity against Aspergillus niger after 7 days by twofold serial dilution method; format: functional; details: 168 h, read-out: -Log MIC
[4] = Partition coefficient, log P of the compound; details: octanol/water
[5] = tested on: Escherichia coli; test: Antimicrobial activity against Escherichia coli after 24 hrs by twofold serial dilution method; format: functional; details: read-out: -Log MIC
[6] = tested on: Candida albicans; test: Antifungal activity against Candida albicans after 2 days by twofold serial dilution method; format: functional; details: 48 h, read-out: -Log MIC

Row | Structure (SMILES) | MIC [1] [µM] | MIC [2] [µM] | MIC [3] [µM] | logP [4] | MIC [5] [µM] | MIC [6] [µM]
1 | C/C=C/C=C/C(=O)Oc1ccccc1 | 95.5 (≈ 18 µg/mL) | 58.9 (≈ 11.1 µg/mL) | 47.9 (≈ 9.02 µg/mL) | 3.18 | 74.1 (≈ 13.9 µg/mL) | 56.2 (≈ 10.6 µg/mL)
2 | C/C=C/C=C/C(=O)OCCCCCC | 100 (≈ 19.6 µg/mL) | 63.1 (≈ 12.4 µg/mL) | 63.1 (≈ 12.4 µg/mL) | 3.5 |  | 51.3 (≈ 10.1 µg/mL)
3 | C/C=C/C=C/C(=O)Nc1ccc(Cl)cc1 | 63.1 (≈ 14 µg/mL) | 44.7 (≈ 9.91 µg/mL) | 50.1 (≈ 11.1 µg/mL) | 3.05 | 72.4 (≈ 16.1 µg/mL) | 50.1 (≈ 11.1 µg/mL)
4 | C/C=C/C=C/C(=O)Nc1ccc(Br)cc1 | 37.2 (≈ 9.9 µg/mL) | 47.9 (≈ 12.7 µg/mL) | 50.1 (≈ 13.3 µg/mL) | 3.32 | 79.4 (≈ 21.1 µg/mL) | 46.8 (≈ 12.5 µg/mL)
5 | C/C=C/C=C/C(=O)Nc1ccccc1Cl | 70.8 (≈ 15.7 µg/mL) | 56.2 (≈ 12.5 µg/mL) | 63.1 (≈ 14 µg/mL) | 3.05 | 81.3 (≈ 18 µg/mL) | 56.2 (≈ 12.5 µg/mL)
6 | C/C=C/C=C/C(=O)Nc1ccc(OC)cc1 | 64.6 (≈ 14 µg/mL) | 45.7 (≈ 9.93 µg/mL) | 44.7 (≈ 9.71 µg/mL) | 2.28 | 64.6 (≈ 14 µg/mL) | 50.1 (≈ 10.9 µg/mL)
7 | C/C=C/C=C/C(=O)OCc1ccccc1 | 63.1 (≈ 12.8 µg/mL) | 69.2 (≈ 14 µg/mL) | 70.8 (≈ 14.3 µg/mL) | 3.28 | 100 (≈ 20.2 µg/mL) | 61.7 (≈ 12.5 µg/mL)
8 | C/C=C/C=C/C(=O)Nc1ccccc1N | 63.1 (≈ 12.8 µg/mL) | 49 (≈ 9.91 µg/mL) | 69.2 (≈ 14 µg/mL) | 1.75 | 69.2 (≈ 14 µg/mL) | 61.7 (≈ 12.5 µg/mL)
9 | C/C=C/C=C/C(=O)Nc1cccc(Cl)c1 | 63.1 (≈ 14 µg/mL) | 50.1 (≈ 11.1 µg/mL) | 39.8 (≈ 8.82 µg/mL) | 3.05 | 72.4 (≈ 16.1 µg/mL) | 50.1 (≈ 11.1 µg/mL)
10 | C/C=C/C=C/C(=O)NCC |  | 89.1 (≈ 12.4 µg/mL) | 89.1 (≈ 12.4 µg/mL) | 1.19 |  | 79.4 (≈ 11.1 µg/mL)
11 | C/C=C/C=C/C(=O)OC [METHYL SORBATE] | 100 (≈ 12.6 µg/mL) | 79.4 (≈ 10 µg/mL) | 100 (≈ 12.6 µg/mL) | 1.5 |  | 79.4 (≈ 10 µg/mL)
12 | O=C(O)c1cn(C2CC2)c2cc(N3CCNCC3)c(F)cc2c1=O [CIPROFLOXACIN] | 0.468 (≈ 0.155 µg/mL) | 0.468 (≈ 0.155 µg/mL) |  |  | 0.468 (≈ 0.155 µg/mL) | 
13 | C/C=C/C=C/C(=O)O [SORBIC ACID] |  |  |  | 1.47 |  | 
14 | C/C=C/C=C/C(=O)OC(C)CC (centres undefined) |  | 74.1 (≈ 12.5 µg/mL) | 83.2 (≈ 14 µg/mL) | 2.72 |  | 74.1 (≈ 12.5 µg/mL)
15 | C/C=C/C=C/C(=O)Nc1ccc(C)cc1 | 61.7 (≈ 12.4 µg/mL) | 55 (≈ 11.1 µg/mL) | 34.7 (≈ 6.98 µg/mL) | 3 | 100 (≈ 20.1 µg/mL) | 55 (≈ 11.1 µg/mL)
16 | C/C=C/C=C/C(=O)Nc1ccccc1OC | 63.1 (≈ 13.7 µg/mL) | 57.5 (≈ 12.5 µg/mL) | 63.1 (≈ 13.7 µg/mL) | 2.28 | 79.4 (≈ 17.3 µg/mL) | 50.1 (≈ 10.9 µg/mL)
17 | C/C=C/C=C/C(=O)N(C)C | 79.4 (≈ 11.1 µg/mL) | 72.4 (≈ 10.1 µg/mL) | 79.4 (≈ 11.1 µg/mL) | 1.1 |  | 63.1 (≈ 8.78 µg/mL)
18 | C/C=C/C=C/C(=O)OCCC(C)C | 63.1 (≈ 11.5 µg/mL) | 55 (≈ 10 µg/mL) | 69.2 (≈ 12.6 µg/mL) | 3.04 | 100 (≈ 18.2 µg/mL) | 69.2 (≈ 12.6 µg/mL)
19 | C/C=C/C=C/C(=O)NC | 100 (≈ 12.5 µg/mL) | 79.4 (≈ 9.94 µg/mL) | 79.4 (≈ 9.94 µg/mL) | 0.85 |  | 79.4 (≈ 9.94 µg/mL)
20 | C/C=C/C=C/C(=O)Nc1cccc(C)c1 | 61.7 (≈ 12.4 µg/mL) | 47.9 (≈ 9.64 µg/mL) | 61.7 (≈ 12.4 µg/mL) | 3 | 79.4 (≈ 16 µg/mL) | 61.7 (≈ 12.4 µg/mL)
21 | C/C=C/C=C/C(=O)N1CCOCC1 | 69.2 (≈ 12.5 µg/mL) | 55 (≈ 9.97 µg/mL) | 79.4 (≈ 14.4 µg/mL) | 0.75 |  | 63.1 (≈ 11.4 µg/mL)

From ChEMBL document CHEMBL1140493, “Quantitative structure-activity relationship studies for prediction of antimicrobial activity of synthesized 2,4-hexadienoic acid derivatives” (Bioorg Med Chem Lett, 2007)
